Measured values taken from ChEMBL document CHEMBL1157814, “Modulation of cellular adhesion by glycoengineering” (J Med Chem, 2010).
Calls of active or inactive are those of the source. The rule behind the calls is not given here.

biological target: T1, P-selectin (Homo sapiens) (UniProt P16109); test: Inhibition of human HL60 cell adhesion to P-selectin coated on microtiter plates assessed as reduction in adhesion at 200 uM after 3 days by calcein-AM assay relative to untreated cells; assay type: cell-based; parameters: scale not given: the % may be the effect or the level left; conditions: HL-60
T1 sequence (whole entry): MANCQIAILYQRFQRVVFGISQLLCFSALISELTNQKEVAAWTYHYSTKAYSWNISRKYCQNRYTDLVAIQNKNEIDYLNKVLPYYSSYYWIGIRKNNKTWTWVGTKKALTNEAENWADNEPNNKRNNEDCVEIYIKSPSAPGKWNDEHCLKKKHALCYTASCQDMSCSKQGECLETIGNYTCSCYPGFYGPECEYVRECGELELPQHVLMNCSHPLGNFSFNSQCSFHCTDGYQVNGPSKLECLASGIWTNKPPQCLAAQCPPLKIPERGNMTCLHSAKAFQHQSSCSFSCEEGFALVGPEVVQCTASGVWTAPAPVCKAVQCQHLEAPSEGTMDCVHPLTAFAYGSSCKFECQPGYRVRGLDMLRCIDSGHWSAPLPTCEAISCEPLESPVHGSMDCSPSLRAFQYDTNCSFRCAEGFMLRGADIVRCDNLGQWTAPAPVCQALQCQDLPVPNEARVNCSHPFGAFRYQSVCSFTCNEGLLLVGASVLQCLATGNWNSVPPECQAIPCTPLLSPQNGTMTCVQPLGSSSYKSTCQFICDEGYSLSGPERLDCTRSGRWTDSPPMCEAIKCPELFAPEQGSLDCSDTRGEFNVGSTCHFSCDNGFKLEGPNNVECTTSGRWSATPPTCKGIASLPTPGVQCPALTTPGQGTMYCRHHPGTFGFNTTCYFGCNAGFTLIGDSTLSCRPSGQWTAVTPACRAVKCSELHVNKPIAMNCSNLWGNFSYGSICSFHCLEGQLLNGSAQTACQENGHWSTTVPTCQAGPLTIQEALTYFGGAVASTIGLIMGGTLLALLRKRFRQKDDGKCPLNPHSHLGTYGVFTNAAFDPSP

| Structure (SMILES) | Activity |
| --- | --- |
| COC(=O)[C@@]1(OC(C)=O)C[C@H](OC(C)=O)[C@@H](NC(=O)CCC(F)(F)F)[C@H]([C@@H](OC(C)=O)[C@@H](COC(C)=O)OC(C)=O)O1 | 77% |
| COC(=O)[C@@]1(OC(C)=O)C[C@H](OC(C)=O)[C@@H](NC(=O)CCC(C)C)[C@H]([C@@H](OC(C)=O)[C@@H](COC(C)=O)OC(C)=O)O1 | 44% |
| CCC(=O)N[C@H]1[C@H]([C@@H](OC(C)=O)[C@@H](COC(C)=O)OC(C)=O)O[C@@](OC(C)=O)(C(=O)OC)C[C@@H]1OC(C)=O | Active |
| COC(=O)[C@@]1(OC(C)=O)C[C@H](OC(C)=O)[C@@H](NC(=O)CC(C)C)[C@H]([C@@H](OC(C)=O)[C@@H](COC(C)=O)OC(C)=O)O1 | 10% |
| COC(=O)[C@@]1(OC(C)=O)C[C@H](OC(C)=O)[C@@H](NC(=O)CC(F)(F)F)[C@H]([C@@H](OC(C)=O)[C@@H](COC(C)=O)OC(C)=O)O1 | 62% |
